For this data set the following is noted: Liquid, Ebulliometric method (Recirculating still).

Molecules are shown by their SMILES. Numbers after ± are expanded uncertainties.

As a reminder, the vapor or sublimation pressure is the pressure of vapour in equilibrium with the condensed phase. Consider `CCC(C)(C)OC` [2-methoxy-2-methylbutane], for which the “vapor or sublimation pressure” value (353.15 K) is 86.7 ± 3.1 kPa.

As for `COC(C)(C)C` [2-methoxy-2-methylpropane], the “vapor or sublimation pressure” value (333.15 K) came to 120.4 ± 3.2 kPa. As to `CN1CCCC1=O` [N-methylpyrrolidone], the “vapor or sublimation pressure” value was 0.5 kPa (333.15 K), 1.3 kPa (353.15 K) and 3.6 ± 3 kPa (373.15 K).

On to `CCCOCCC` [dipropyl ether], for which the “vapor or sublimation pressure” value came out at 74.1 ± 3.1 kPa (353.15 K) and 135.5 ± 3.1 kPa (373.15 K).

For the origin of these results see the NIST ThermoML archive (doi:10.1016/j.fluid.2005.06.017).
